Data on 24 molecules can be found in patent US20030225152A1, “3-(Arylamino)methylene-1, 3-dihydro-2h-indol-2-ones as kinase inhibitors” (priority 2001, published 2003).

Experiment [1] concerns the target T1, cytoplasmic domain of the human VEGF receptor (VEGFR-2) (Homo sapiens, UniProt P35968).
T1 construct: The cytoplasmic domain of the human VEGF receptor (VEGFR-2) was expressed as a Histidine-tagged fusion protein; Histidine tag
Description: KDR Assay. In kind it is biochemical. The conditions noted are these: His-VEGFR-2; 3.6 μM ATP. The gist of the method: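 His-tagged human VEGFR-2 cytoplasmic domain from baculovirus-infected insect cells, acting on poly-Glu-Tyr (4:1)-coated plates with 3.6 μM ATP in Hepes pH 7.4 with MgCl2/MnCl2 and 5% final DMSO, 10 min at 25 °C. Phosphotyrosine detected by peroxidase-conjugated antibody ELISA at 492 nm; IC50 from blank-subtracted OD versus concentration.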

The test system of experiment [2] is VEGF induced increases in intracellular calcium levels in HUVEC (human umbilical vein endothelial cells). Description: VEGF Stimulated Ca++ Signal in vitro (FLIPR). The format is cell-based. The conditions noted are these: VEGF 5 ng/mL; for IC50: 0.01 to 10.0 μM. The gist of the method: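 HUVEC loaded with Fluo-4 (45 min, 37° C.), washed, then pre-incubated 30 min with compound (10 μM single dose or 0.01–10.0 μM; 0.1% DMSO) before 5 ng/mL VEGF. Fluorescence at 516 nm read by FLIPR; IC50 from % inhibition of max-min VEGF response.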

Each structure is given as a SMILES string.

The term IC50 denotes the concentration needed to halve the response being measured. As a reminder, the inhibition is the percentage by which the read-out fell short of the control.

T1 sequence (P35968 786-1356): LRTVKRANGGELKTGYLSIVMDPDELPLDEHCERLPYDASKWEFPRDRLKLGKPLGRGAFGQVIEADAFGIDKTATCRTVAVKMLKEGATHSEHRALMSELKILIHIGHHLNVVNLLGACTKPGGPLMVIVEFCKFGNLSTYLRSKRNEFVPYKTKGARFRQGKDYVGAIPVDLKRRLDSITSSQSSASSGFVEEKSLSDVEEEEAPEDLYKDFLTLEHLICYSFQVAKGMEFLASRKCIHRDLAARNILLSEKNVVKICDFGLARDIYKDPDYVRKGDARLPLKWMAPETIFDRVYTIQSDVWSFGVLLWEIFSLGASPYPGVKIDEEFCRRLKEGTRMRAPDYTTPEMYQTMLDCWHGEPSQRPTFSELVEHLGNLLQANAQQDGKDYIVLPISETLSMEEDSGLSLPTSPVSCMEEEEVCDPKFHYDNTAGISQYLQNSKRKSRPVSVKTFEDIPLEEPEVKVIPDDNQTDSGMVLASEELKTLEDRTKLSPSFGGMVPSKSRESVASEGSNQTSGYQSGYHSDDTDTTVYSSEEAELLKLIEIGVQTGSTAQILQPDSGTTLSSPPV

In the case of `O=C(O)CCc1ccc(NC=C2C(=O)Nc3ccc(F)cc32)cc1` [Example 165, 3-{4-[(5-Fluoro-2-oxo-1,2-dihydro-indol-3-ylidenemethyl)-amino]-phenyl}-propionic acid], the IC50 in experiment [1] is 360 nM. Further, in experiment [2] (Homo sapiens), the inhibition at 10 µM was 99.3% and the IC50 stood at 1340 nM.

`Cc1cccc2c1C(=CNc1ccc(O)cc1)C(=O)N2` [Example 96, 3-[(4-Hydroxy-phenylamino)-methylene]-4-methyl-1,3-dihydro-indol-2-one] gave an IC50 in experiment [1] of 200 nM. For the same molecule, in experiment [2] (Homo sapiens), the inhibition at 10 µM was 97% and the IC50 amounted to 1680 nM.

`CC(C)(C)c1ccc(NC=C2C(=O)Nc3ccccc32)cc1` [Example 17, 3-[(4-tert-Butyl-phenylamino)-methylene]-1,3-dihydro-indol-2-one] had an IC50 in experiment [1] of 790 nM. Also, in experiment [2] (Homo sapiens), the inhibition at 10 µM came out at 76.5% and the IC50 is 3000 nM.

In the case of `O=C1Nc2ccc(F)cc2C1=CNc1ccc2cn[nH]c2c1` [Example 163, 5-Fluoro-3-[(1 h-indazol-6-ylamino)-methylene]-1,3-dihydro-indol-2-one], the IC50 in experiment [1] was 320 nM; in experiment [2] it was 850 nM; in experiment [2] (Homo sapiens), no more than 1000 nM. Moreover, the inhibition at 10 µM in experiment [2] (Homo sapiens) amounted to 95.3%.

Consider `O=C1Nc2ccc(F)cc2C1=CNc1ccc(NCCN2CCOCC2)cc1` [Example 244, 5-Fluoro-3-{[4-(2-morpholin-4-yl-ethylamino)-phenylamino]-methylene}-1,3-dihydro-indol-2-one], for which 190 nM corresponded to half-maximal inhibition in experiment [1] (IC50). In experiment [2] (Homo sapiens), the inhibition at 10 µM came out at 96%.

With `O=C1Nc2ccc(Cl)cc2C1=CNc1ccc2cn[nH]c2c1` [Example 103], the IC50 in experiment [1] was determined as 480 nM; in experiment [2] (Homo sapiens) it was 1040 nM. In experiment [2] (Homo sapiens), the inhibition at 10 µM turned out to be 96.6%.

As for `O=C1Nc2ccc(F)cc2C1=CNc1ccccc1` [Example 169, 5-Fluoro-3-phenylaminomethylene-1,3-dihydro-indol-2-one], in experiment [1], half-maximal inhibition (IC50) required 610 nM. Further, in experiment [2] (Homo sapiens), the inhibition at 10 µM stood at 93.4% and the half-maximal inhibitory concentration (IC50) was 1160 nM.

For the molecule `CCN(CC)Cc1cc(NC=C2C(=O)Nc3ccc(Cl)cc32)ccc1O` [Example 109, 5-Chloro-3-[(4-hydoxy-3-(diethylaminomethyl)phenylamino)-methylene]-1,3-dihydro-indol-2-one], the IC50 is 600 nM in experiment [1] and 1700 nM in experiment [2] (Homo sapiens). Also, the inhibition at 10 µM in experiment [2] (Homo sapiens) was 96.5%.

As for `CN1CCCC(COc2ccc(NC=C3C(=O)Nc4cccc(F)c43)cc2)C1` (stereo not drawn) [Example 281, 4-Fluoro-3-{[4-(1-methyl-piperidin-3-ylmethoxy)-phenylamino]-methylene}-1,3-dihydro-indol-2-one], the figures for the IC50 in experiment [1], in experiment [2] and in experiment [2] (Homo sapiens) were 320 nM, 730 nM and no more than 1000 nM, respectively.

With `Cc1cccc2c1C(=CNc1ccc(C(C)C)cc1)C(=O)N2` [Example 123, 3-[(4-Isopropyl-phenylamino)-methylene]-4-methyl-1,3-dihydro-indol-2-one], in experiment [1], the IC50 is 590 nM. Also, in experiment [2] (Homo sapiens), the inhibition at 10 µM turned out to be 49.9% and the IC50 was 4430 nM.

For `CCN(CC)CCCOc1ccc(NC=C2C(=O)Nc3ccc(Cl)cc32)cc1` [Example 232, 5-Chloro-3-{[4-(3-diethylamino-propoxy)-phenylamino]-methylene}-1,3-dihydro-indol-2-one], the IC50 in experiment [1] was 160 nM; in experiment [2], 860 nM; in experiment [2] (Homo sapiens) it was no more than 1000 nM. Further, the inhibition at 10 µM in experiment [2] (Homo sapiens) came out at 97.1%.

`CC(O)c1ccc(NC=C2C(=O)Nc3ccc(Cl)cc32)cc1` (stereo not drawn) [Example 72, 5-Chloro-3-{[4-(1-hydroxy-ethyl)-phenylamino]-methylene}-1,3-dihydro-indol-2-one]: the IC50 in experiment [1] came out at 430 nM. In experiment [2] (Homo sapiens), the inhibition at 10 µM is 81.5% and the IC50 was determined as 1560 nM.

In experiment [1], `CSc1ccc(NC=C2C(=O)Nc3cccc(C)c32)cc1` [Example 137, 4-Methyl-3-[(4-methylsulfanyl-phenylamino)-methylene]-1,3-dihydro-indol-2-one] returned a half-inhibitory concentration (IC50) of 270 nM. Moreover, in experiment [2] (Homo sapiens), the inhibition at 10 µM worked out at 65.4% and the IC50 came out at 1670 nM.

Consider `Cc1cccc2c1C(=CNc1ccc3cc[nH]c3c1)C(=O)N2` [Example 97, 3-[(1H-Indol-6-ylamino)-methylene]-4-methyl-1,3-dihydro-indol-2-one], for which, in experiment [1], half-maximal inhibition (IC50) required 200 nM. In addition, in experiment [2] (Homo sapiens), the inhibition at 10 µM stood at 96.5% and the IC50 worked out at 1860 nM.

Regarding `CCN(CC)CCCOc1ccc(NC=C2C(=O)Nc3cc(-c4cccc(OC)c4)ccc32)cc1` [Example 277, 3-{[4-(3-Diethylamino-propoxy)-phenylamino]-methylene}-6-(3-Methoxy-phenyl)-1,3-dihydro-indol-2-one], the IC50 is 250 nM in experiment [1] and no less than 10000 nM in experiment [2] (Homo sapiens).

Take `O=C1Nc2ccc(F)cc2C1=CNc1ccc(CN2CCCCC2)cc1` [Example 258, 5-Fluoro-3-[(4-piperidin-1-ylmethyl-phenylamino)-methylene]-1,3-dihydro-indol-2-one]: the figures for the IC50 in experiment [1], in experiment [2] and in experiment [2] (Homo sapiens) were 560 nM, 720 nM and no more than 1000 nM, respectively.

`COc1ccc(NC=C2C(=O)Nc3ccc(Cl)cc32)cc1O` [Example 65, 3-[(3-Hydroxy-4-methoxyphenylamino)-methylene]-5-chloro-1,3-dihydro-indol-2-one]: in experiment [1], half-maximal inhibition (IC50) was put at 530 nM. In experiment [2] (Homo sapiens), the inhibition at 10 µM came to 95.5% and the IC50 worked out at 1100 nM.

For `O=C1Nc2cccc(F)c2C1=CNc1ccc(OCCCN2CCCCC2)cc1` [Example 255, 4-Fluoro-3-{[4-(3-piperidin-1-yl-propoxy)-phenylamino]-methylene}-1,3-dihydro-indol-2-one], the IC50 in experiment [1] was 440 nM; in experiment [2] (Homo sapiens), 1300 nM.

In experiment [1], `O=C1Nc2cc(F)ccc2C1=CNc1ccc(N2CCOCC2)cc1` [Example 228, 6-Fluoro-3-[(4-morpholin-4-yl-phenylamino)-methylene]-1,3-dihydro-indol-2-one] registered an IC50 of 80 nM. In experiment [2] (Homo sapiens), the inhibition at 10 µM stood at 97.2%.

`O=C1Nc2ccc(Cl)cc2C1=CNc1ccc(NCCN2CCOCC2)cc1` [Example 245, 5-Chloro-3-{[4-(2-morpholin-4-yl-ethylamino)-phenylamino]-methylene}-1,3-dihydro-indol-2-one] returned an IC50 in experiment [1] of 140 nM. In experiment [2] (Homo sapiens), the inhibition at 10 µM worked out at 95.5%.

Regarding `COc1cccc(-c2ccc3c(c2)NC(=O)C3=CNc2ccc(N3CCOCC3)cc2)c1` [Example 269, 6-(3-Methoxy-phenyl)-3-{[4-morpholin-4-yl-phenylamino)-methylene]-1,3-dihydro-indol-2-one], the IC50 was 1680 nM in experiment [1] and no less than 10000 nM in experiment [2] (Homo sapiens).

Consider `O=C1Nc2ccc(F)cc2C1=CNc1cccc(O)c1` [Example 177, 5-Fluoro-3-[(3-hydroxy-phenylamino)-methylene]-1,3-dihydro-indol-2-one], for which the IC50 is 750 nM in experiment [1], 740 nM in experiment [2] and no more than 1000 nM in experiment [2] (Homo sapiens). The inhibition at 10 µM in experiment [2] (Homo sapiens) amounted to 98.2%.

Regarding `CCc1cccc(NC=C2C(=O)Nc3ccccc32)c1` [Example 6], the midpoint of inhibition in experiment [1], the IC50, lay at 520 nM. Further, in experiment [2] (Homo sapiens), the inhibition at 10 µM was 90.1% and the IC50 came to 1840 nM.

With `CCN(CC)Cc1cc(NC=C2C(=O)Nc3ccccc32)ccc1O` [Example 160, 3-[(3-Diethylaminomethyl-4-hydroxy-phenylamino)-methylene]-1,3-dihydro-indol-2-one], 700 nM corresponded to half-maximal inhibition in experiment [1] (IC50). Further, in experiment [2] (Homo sapiens), the inhibition at 10 µM turned out to be 91.4% and the IC50 worked out at 1290 nM.
